Data set [1] is described as follows: Bioavailability in immunocompromized children at […], po administered every 12 hrs. Format: ADME, organism-based. The conditions noted are these: human, in vivo.
A short description of data set [2]: Bioavailability in children and young patient with malignancy. Format: ADME, organism-based. The conditions noted are these: human, in vivo.

From ChEMBL document CHEMBL1649513, “Population pharmacokinetics of acyclovir in children and young people with malignancy after administration of intravenous acyclovir or oral valacyclovir” (Antimicrob Agents Chemother, 2009) come the findings set out here.

As a reminder, the bioavailability is the share of a dose that reaches the circulation, judged against a reference dose that is usually intravenous. The low end stands for little systemic uptake, the high end for much systemic uptake. As to `Nc1nc2c(ncn2COCCO)c(=O)[nH]1` [ACYCLOVIR], the bioavailability was found to be 48% in data set [1] and 60% in data set [2].
